Assay results: ChEMBL document CHEMBL1154460, “Tryptophan-containing dipeptide derivatives as potent PPARgamma antagonists: design, synthesis, biological evaluation, and molecular modeling” (Eur J Med Chem, 2008)
Calls of active or inactive are those of the source. The calls are words filed in the database; no cut-off is given here. Non-standard residues stand in square brackets, D forms with d. Residues, ends and D or L forms follow the SMILES beside them. *: point of attachment. 2Nal = N[C@@H](Cc1ccc2ccccc2c1)C(=O)O; Aad = N[C@@H](CCCC(=O)O)C(=O)O; OBn = c1ccc(CO*)cc1

These molecules were tested against T1, Peroxisome proliferator-activated receptor gamma (Homo sapiens, UniProt P37231) (assay: Antagonist activity at human PPARgamma receptor expressed in Saccharomyces cerevisiae AH109 co-transfected with mouse CBP assessed as inhibition of rosiglitazone-induced LBD-CBP interaction by alpha-galactosidase based yeast two hybrid assay).
T1 sequence (P37231 whole entry): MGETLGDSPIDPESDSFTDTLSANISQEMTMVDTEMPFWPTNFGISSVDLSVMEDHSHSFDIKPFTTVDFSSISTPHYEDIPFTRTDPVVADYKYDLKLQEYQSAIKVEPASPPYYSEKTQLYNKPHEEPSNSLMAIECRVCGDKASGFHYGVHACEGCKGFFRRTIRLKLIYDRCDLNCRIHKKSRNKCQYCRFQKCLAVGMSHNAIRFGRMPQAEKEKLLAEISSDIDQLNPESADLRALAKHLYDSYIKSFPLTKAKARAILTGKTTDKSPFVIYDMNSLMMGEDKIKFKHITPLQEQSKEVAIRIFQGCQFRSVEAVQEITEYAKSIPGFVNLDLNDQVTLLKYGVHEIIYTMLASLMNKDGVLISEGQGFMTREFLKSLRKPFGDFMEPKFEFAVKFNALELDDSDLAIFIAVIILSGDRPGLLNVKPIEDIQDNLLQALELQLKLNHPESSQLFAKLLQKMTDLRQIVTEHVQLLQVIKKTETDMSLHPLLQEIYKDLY
Assay type: functional

| IC50 | SMILES |
| --- | --- |
| 18.4 µM | NC(=O)C[C@H](NC(=O)[C@@H](N)Cc1c[nH]c2ccccc12)C(=O)O (H-Trp-Asn-OH) |
| 40 µM | CC(=O)NCCOC(=O)C(Oc1cccc(C(F)(F)F)c1)c1ccc(Cl)cc1 (configuration not stated) [HALOFENATE] |
| 15.4 µM | N=C(N)NCCC[C@H](NC(=O)[C@@H](N)Cc1c[nH]c2ccccc12)C(=O)O (H-Trp-Arg-OH) |
| 15.1 µM | N[C@@H](Cc1c[nH]c2ccccc12)C(=O)N[C@@H](CCCC(=O)O)C(=O)O (H-Trp-[Aad]-OH) |
| 5.2 µM | N[C@@H](Cc1c[nH]c2ccccc12)C(=O)N[C@@H](CC(=O)O)C(=O)O |
| 0.22 µM | O=C(O)C(Oc1cccc(C(F)(F)F)c1)c1ccc(Cl)cc1 (configuration not stated) |
| 3.3 µM | O=C(Nc1ccccc1)c1cc([N+](=O)[O-])ccc1Cl |
| 18.7 µM | NC(=O)CC[C@H](NC(=O)[C@@H](N)Cc1c[nH]c2ccccc12)C(=O)O (H-Trp-Gln-OH) |
| 8.67 µM | N[C@@H](Cc1c[nH]c2ccccc12)C(=O)N[C@@H](CCC(=O)O)C(=O)O |

| SMILES | IC50 |
| --- | --- |
| CC(C)(c1ccc(OCC2CO2)cc1)c1ccc(OCC2CO2)cc1 (configuration not stated) | 100 µM |
| CC(C)C[C@H](NC(=O)[C@@H](N)Cc1c[nH]c2ccccc12)C(=O)O (H-Trp-Leu-OH) | 25.8 µM |
| C=CCn1cc([N+](=O)[O-])s/c1=N\C(=O)C(C)(C)C | 0.82 µM |
| COP(=O)(OC)OC(c1ccc(Cl)cc1)P(=O)(OC)OC (configuration not stated) [MIFOBATE] | 140 µM |

Each molecule was assayed against T2, Peroxisome proliferator-activated receptor gamma (Homo sapiens) (UniProt P37231) (assay: Antagonist activity at human PPARgamma receptor expressed in Saccharomyces cerevisiae AH109 co-transfected with mouse CBP assessed as inhibition of rosiglitazone-induced LBD-CBP interaction at 10 uM by alpha-galactosidase based yeast two hybrid assay).
T2 sequence (whole entry): T1 sequence (P37231 whole entry)
Assay type: functional

| inhibition | SMILES |
| --- | --- |
| 15.5% | N[C@@H](Cc1c[nH]c2ccccc12)C(=O)N[C@H](CC(=O)O)C(=O)O |
| inactive | COC(=O)[C@H](C)NC(=O)[C@@H](N)Cc1ccccc1 |
| 4.05% | COC(=O)CC[C@H](NC(=O)[C@@H](N)Cc1c[nH]c2ccccc12)C(=O)OC |
| inactive | COC(=O)CC[C@@H](NC(=O)[C@@H](N)Cc1c[nH]c2ccccc12)C(=O)OC |
| 36.3% | NC(=O)C[C@H](NC(=O)[C@@H](N)Cc1c[nH]c2ccccc12)C(=O)O (H-Trp-Asn-OH) |
| 27.7% | N[C@@H](Cc1ccc2ccccc2c1)C(=O)N[C@@H](CCC(=O)OCc1ccccc1)C(=O)OCc1ccccc1 (H-[2Nal]-Glu(OBn)-OBn) |
| inactive | CC(C)C[C@H](NC(=O)[C@@H](N)Cc1c[nH]c2ccccc12)C(=O)OCc1ccccc1 (H-Trp-Leu-OBn) |
| 5.29% | COC(=O)[C@H](CC(C)C)NC(=O)[C@@H](N)Cc1c[nH]c2ccccc12 (H-Trp-Leu-OMe) |
| 45% | N=C(N)NCCC[C@H](NC(=O)[C@@H](N)Cc1c[nH]c2ccccc12)C(=O)O (H-Trp-Arg-OH) |
| 8.74% | COC(=O)CCC[C@H](NC(=O)[C@@H](N)Cc1c[nH]c2ccccc12)C(=O)OC (H-Trp-[Aad](OMe)-OMe) |
| 0.42% | N[C@H](Cc1c[nH]c2ccccc12)C(=O)N[C@H](CC(=O)O)C(=O)O |
| 14.7% | COC(=O)CC[C@H](NC(=O)[C@@H](N)Cc1ccc2ccccc2c1)C(=O)OC (H-[2Nal]-Glu(OMe)-OMe) |
| inactive | COC(=O)CC[C@H](NC(=O)[C@H](N)Cc1ccccc1)C(=O)OC |
| inactive | N[C@@H](Cc1ccccc1)C(=O)N[C@@H](CC(=O)OCc1ccccc1)C(=O)OCc1ccccc1 (H-Phe-Asp(OBn)-OBn) |
| 5.33% | N[C@@H](Cc1c[nH]c2ccccc12)C(=O)N[C@@H](CC(=O)OCc1ccccc1)C(=O)OCc1ccccc1 (H-Trp-Asp(OBn)-OBn) |
| 70% | N[C@@H](Cc1c[nH]c2ccccc12)C(=O)N[C@@H](CCCC(=O)O)C(=O)O (H-Trp-[Aad]-OH) |
| inactive | COC(=O)C[C@H](NC(=O)[C@H](N)Cc1ccccc1)C(=O)OC |

| inhibition | SMILES |
| --- | --- |
| inactive | N[C@@H](Cc1c[nH]c2ccccc12)C(=O)N[C@H](CCC(=O)OCc1ccccc1)C(=O)OCc1ccccc1 |
| inactive | COC(=O)CCC[C@H](NC(=O)[C@H](N)Cc1ccccc1)C(=O)OC |
| 4.3% | N[C@@H](Cc1ccccc1)C(=O)N[C@@H](CCC(=O)O)C(=O)O (H-Phe-Glu-OH) |
| 57.8% | N[C@@H](Cc1c[nH]c2ccccc12)C(=O)N[C@@H](CC(=O)O)C(=O)O |
| 0.68% | N[C@H](Cc1c[nH]c2ccccc12)C(=O)N[C@@H](CC(=O)O)C(=O)O |
| 1.12% | N[C@@H](Cc1ccccc1)C(=O)N[C@@H](CC(=O)O)C(=O)O (H-Phe-Asp-OH) |
| 38.6% | NC(=O)CC[C@H](NC(=O)[C@@H](N)Cc1c[nH]c2ccccc12)C(=O)O (H-Trp-Gln-OH) |
| inactive | COC(=O)C[C@H](NC(=O)[C@@H](N)Cc1c[nH]c2ccccc12)C(=O)OC (H-Trp-Asp(OMe)-OMe) |
| inactive | N[C@@H](Cc1ccccc1)C(=O)N[C@@H](CCC(=O)OCc1ccccc1)C(=O)OCc1ccccc1 (H-Phe-Glu(OBn)-OBn) |
| 3.99% | COC(=O)CC[C@H](NC(=O)[C@@H](N)Cc1ccccc1)C(=O)OC |
| 5.26% | COC(=O)CC[C@H](NC(=O)[C@@H](N)Cc1ccc(OC)cc1)C(=O)OC (H-Tyr(Me)-Glu(OMe)-OMe) |
| 0.4% | N[C@@H](Cc1c[nH]c2ccccc12)C(=O)N[C@H](CCC(=O)O)C(=O)O |
| inactive | COC(=O)[C@H](CC(C)C)NC(=O)[C@H](N)Cc1ccccc1 |
| 2.1% | N[C@@H](Cc1ccc2ccccc2c1)C(=O)N[C@@H](CCC(=O)O)C(=O)O (H-[2Nal]-Glu-OH) |
| 4.34% | COC(=O)[C@H](CC(C)C)NC(=O)[C@@H](N)Cc1ccc2ccccc2c1 (H-[2Nal]-Leu-OMe) |
| 43.2% | N[C@@H](Cc1c[nH]c2ccccc12)C(=O)N[C@@H](CCC(=O)O)C(=O)O |

| SMILES | inhibition |
| --- | --- |
| CC(C)C[C@H](NC(=O)[C@@H](N)Cc1c[nH]c2ccccc12)C(=O)O (H-Trp-Leu-OH) | 58.2% |
